Values joined by “and” are separate entries in the source; they are usually repeats but may differ in a detail not shown here. Identical values can stand only once.
Target: Tubulin (Bos taurus, UniProt Q6B856+Q862L2+Q862F3)
Experiment: In vitro inhibitory activity against bovine brain tubulin assembly at a concentration of 3-3.5 mg/ml
Format: functional

IC50 | Compound
500 nM and 600 nM | CCC1CN2CCc3c([nH]c4ccccc34)[C@@](C(=O)OC)(c3cc4c(cc3OC)N(C)C3C45CCN4CC=CC(CC)(C45)C(OC(C)=O)[C@]3(O)C(=O)OC)CC(C2)[C@H]1c1ccccc1 (stereo not given in full)
21000 nM and 28000 nM | CCC1=CC2CN(CCc3c([nH]c4ccccc34)[C@@](C(=O)OC)(c3cc4c(cc3OC)N(C)C3C45CCN4CC=CC(CC)(C45)C(OC(C)=O)[C@]3(O)C(=O)OC)C2)[C@@H]1C#Cc1ccccc1 (stereo not given in full)
1400 nM and 1600 nM | CCC1=CC2CN(CCc3c([nH]c4ccccc34)[C@@](C(=O)OC)(c3cc4c(cc3OC)N(C)C3C45CCN4CC=CC(CC)(C45)C(OC(C)=O)[C@]3(O)C(=O)OC)C2)[C@@H]1c1ccccc1 (stereo not given in full)
1300 nM and 1400 nM | CCC1CN2CCc3c([nH]c4ccccc34)[C@@](C(=O)OC)(c3cc4c(cc3OC)N(C)C3C45CCN4CC=CC(CC)(C45)C(OC(C)=O)[C@]3(O)C(=O)OC)CC(C2)[C@H]1CC (stereo not given in full)
400 nM | CCC1CN2CCc3c([nH]c4ccccc34)[C@@](C(=O)OC)(c3cc4c(cc3OC)N(C)C3C45CCN4CC=CC(CC)(C45)C(OC(C)=O)[C@]3(O)C(=O)OC)CC(C2)[C@H]1C(C)(C)C (stereo not given in full)
